Test results: US9409952B2, “Peptide-compound cyclization method” (Chugai Seiyaku Kabushiki Kaisha, priority 2011, dated 2016)
Like-named read-outs stand apart in the source and are kept apart here. Starred links: 1 amine or outer side, 2 acyl side, 3 side chain; linkers in the order of their positions; H or OH if unused. Positions of bridges follow the written chain, without caps; N, C: chain ends. Non-standard residues stand in square brackets, D forms with d. Residues, ends and D or L forms follow the SMILES beside them. *: point of attachment. NMePhe(3-Cl) = CN[C@@H](Cc1cccc(Cl)c1)C(=O)O; NMeF = CN[C@@H](Cc1ccccc1)C(=O)O; NMeI = CC[C@H](C)[C@H](NC)C(=O)O; NMeβAla = CN(CCC(=O)[*:2])[*:1]; NMeL = CN[C@@H](CC(C)C)C(=O)O; NMeV = CN[C@H](C(=O)O)C(C)C; NMeA = CN[C@@H](C)C(=O)O; Piperidide = C1CCN(*)CC1; dNMeA = CN[C@H](C)C(=O)O; β3hA = C[C@H](N)CC(=O)O; Sar = CNCC(=O)O; tBu = CC(C)(C)*

Key:
[1] = PAMPA (parallel artificial membrane permeability assay); type: in vitro ADME; settings: PAMPA
How it was run: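 Artificial membrane was 10% (w/v) egg lecithin plus 0.5% (w/v) cholesterol in dodecane on a PVDF filter. A 10 mM DMSO stock was added at 0.5% (v/v) to donor buffer (50 mM MOPSO, pH 6.5, 5.0% glycocholic acid). After 18 h at 37 °C, LC/MS or LC/UV gave donor and acceptor levels for Pe.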

[2] = Metabolic stability in human hepatic microsome; type: in vitro ADME; settings: microsomes
[3] = membrane permeation rate (Pe), 50 mM MOPSO buffer pH 6.5 with 5.0% glycocholic acid, 37° C., 18 hours, read-out: iPAMPA Pe
[4] = pH 7.4, human hepatic microsome, NADPH(+), read-out: CL NADPH(+)

SMILES | Papp at 18 hours, 50 µM ([1]; pH 6.5) [×10⁻⁶ cm/s] | microsomal CLint at 1 uM ([2]; human, pH 7.4, CL NADPH(+)) [µL/min/mg] | Papp at 18 hours, 50 µM [1, 3] [×10⁻⁶ cm/s] | microsomal CLint at 1 uM [2, 4] [µL/min/mg]
CC(C)C[C@@H]1NC(=O)[C@H](Cc2ccccc2)N(C)C(=O)[C@H](Cc2ccccc2)N(C)C(=O)[C@H]([C@@H](C)O)NC(=O)CN(C)C(=O)[C@H](C)NC(=O)C[C@@H](C(=O)N2CCCCC2)NC1=O [DP-751] (A[Sar]T[NMeF][NMeF]LD-Piperidide; lactam N-7) | – | – | 18 | 156
CC(C)C[C@@H]1NC(=O)[C@H]([C@@H](C)O)NC(=O)[C@@H]2CCCN2C(=O)[C@H](Cc2ccccc2)NC(=O)[C@H](COC(C)(C)C)NC(=O)[C@H](CC(C)C)N(C)C(=O)[C@H](Cc2ccccc2)NC(=O)[C@@H](C)N(C)C(=O)C[C@H](C)NC(=O)CNC(=O)[C@H](C)N(C)C(=O)[C@H](C)N(C)C1=O [DP-752] (cyclo(F[NMeL]S(tBu)FPTL[NMeA][NMeA]G[β3hA][dNMeA])) | 6.2 | 33 | – | –
CC(C)C[C@@H]1NC(=O)[C@H](C)N(C)C(=O)[C@H]([C@@H](C)O)NC(=O)[C@H](Cc2ccccc2)N(C)C(=O)CNC(=O)[C@H](C(C)C)N(C)C(=O)[C@H](C(C)C)NC(=O)[C@H](C)N(C)C(=O)[C@H](Cc2ccccc2)NC(=O)[C@H](C)N(C)C(=O)[C@@H](C)N(C)C(=O)C[C@H](C)NC1=O [DP-753] (cyclo(F[NMeA]V[NMeV]G[NMeF]T[NMeA]L[β3hA][dNMeA][NMeA])) | – | – | 10 | 35
CC[C@H](C)[C@H]1C(=O)NCC(=O)N[C@@H](C)CC(=O)N(C)[C@H](C)C(=O)N[C@@H](Cc2ccccc2)C(=O)N(C)[C@@H](CC(C)C)C(=O)N[C@@H](COC(C)(C)C)C(=O)N[C@@H](Cc2ccccc2)C(=O)N2CCC[C@H]2C(=O)N[C@@H]([C@@H](C)O)C(=O)N[C@@H](CC(C)C)C(=O)N(C)[C@@H](C)C(=O)N1C [DP-754] (cyclo(F[NMeL]S(tBu)FPTL[NMeA][NMeI]G[β3hA][dNMeA])) | 32 | 41 | – | –
CC[C@H](C)[C@H]1C(=O)NCC(=O)N(C)[C@@H](Cc2ccccc2)C(=O)N[C@@H]([C@@H](C)O)C(=O)N(C)[C@@H](C)C(=O)N[C@@H](CC(C)C)C(=O)N[C@@H](C)CC(=O)N(C)[C@H](C)C(=O)N(C)[C@@H](C)C(=O)N[C@@H](Cc2ccccc2)C(=O)N(C)[C@@H](CC(C)C)C(=O)N[C@@H](C(C)C)C(=O)N1C [DP-755] (cyclo(F[NMeL]V[NMeI]G[NMeF]T[NMeA]L[β3hA][dNMeA][NMeA])) | – | – | 36 | 144
CC[C@H](C)[C@H]1C(=O)N[C@@H](C)C(=O)N(C)[C@@H](CC(C)C)C(=O)N[C@@H](COC(C)(C)C)C(=O)N(C)[C@@H](CC(C)C)C(=O)N[C@@H](C)CC(=O)N(C)CCC(=O)N[C@@H](Cc2ccccc2)C(=O)N(C)[C@@H](Cc2ccccc2)C(=O)N(C)[C@@H](CC(C)C)C(=O)N[C@@H]([C@@H](C)O)C(=O)N(C)[C@@H](C)C(=O)N1C [DP-756] (cyclo(A[NMeL]S(tBu)[NMeL][β3hA][NMeβAla]F[NMeF][NMeL]T[NMeA][NMeI])) | 30 | 65 | – | –
CC(C)C[C@@H]1NC(=O)[C@H](CC(C)C)N(C)C(=O)[C@H](C)NC(=O)[C@H](C(C)C)N(C)C(=O)[C@H](Cc2ccccc2)NC(=O)CN(C)C(=O)[C@H]([C@@H](C)O)NC(=O)[C@H](C)N(C)C(=O)[C@H](CC(C)C)N(C)C(=O)[C@@H](C)NC(=O)C[C@H](C)NC1=O [DP-764] (cyclo(A[NMeL]L[β3hA][dA][NMeL][NMeA]T[Sar]F[NMeV])) | – | – | 5 | 27

Now from value to compound, other results behind:

Papp at 18 hours, 50 µM ([1]; pH 6.5) [×10⁻⁶ cm/s] | microsomal CLint at 1 uM ([2]; human, pH 7.4, CL NADPH(+)) [µL/min/mg] | SMILES | Papp at 18 hours, 50 µM [1, 3] [×10⁻⁶ cm/s] | microsomal CLint at 1 uM [2, 4] [µL/min/mg]
33 | 124 | CC[C@H](C)[C@H]1C(=O)NCC(=O)N(C)[C@@H](Cc2ccccc2)C(=O)N[C@@H]([C@@H](C)O)C(=O)N(C)[C@@H](CC(C)C)C(=O)N[C@@H](CC(C)C)C(=O)N[C@@H](C)CC(=O)N(C)[C@H](C)C(=O)N(C)[C@@H](CC(C)C)C(=O)N[C@@H](Cc2ccccc2)C(=O)N(C)[C@@H](CC(C)C)C(=O)N[C@@H](C(C)C)C(=O)N1C [DP-757] (cyclo(F[NMeL]V[NMeI]G[NMeF]T[NMeL]L[β3hA][dNMeA][NMeL])) | – | –
24 | 59 | CC[C@H](C)[C@H]1C(=O)N[C@@H](CC(C)C)C(=O)N(C)[C@@H](CC(C)C)C(=O)N[C@@H](COC(C)(C)C)C(=O)N(C)[C@@H](CC(C)C)C(=O)N[C@@H](C)CC(=O)N(C)CCC(=O)N[C@@H](Cc2ccccc2)C(=O)N(C)[C@@H](Cc2ccccc2)C(=O)N(C)[C@@H](CC(C)C)C(=O)N[C@@H]([C@@H](C)O)C(=O)N(C)[C@@H](C)C(=O)N1C [DP-758] (cyclo(F[NMeF][NMeL]T[NMeA][NMeI]L[NMeL]S(tBu)[NMeL][β3hA][NMeβAla])) | – | –
27 | 144 | CC[C@H](C)[C@H]1C(=O)N(C)[C@@H](C)C(=O)N(C)[C@@H](CC(C)C)C(=O)N[C@@H](COC(C)(C)C)C(=O)N(C)[C@@H](CC(C)C)C(=O)N[C@@H](C)CC(=O)N(C)[C@@H](C)C(=O)N(C)[C@@H](Cc2ccccc2)C(=O)N[C@@H](C)C(=O)N(C)[C@@H](CC(C)C)C(=O)N[C@@H]([C@@H](C)O)C(=O)N[C@@H](Cc2ccccc2)C(=O)N1C [DP-759] (cyclo(A[NMeL]TF[NMeI][NMeA][NMeL]S(tBu)[NMeL][β3hA][NMeA][NMeF])) | – | –
28 | 194 | CC[C@H](C)[C@H]1C(=O)N[C@@H](C)C(=O)N(C)[C@@H](CC(C)C)C(=O)N[C@@H]([C@@H](C)O)C(=O)N[C@@H](Cc2ccccc2)C(=O)N(C)[C@@H](Cc2ccccc2)C(=O)N(C)[C@@H](CC(C)C)C(=O)N[C@@H](COC(C)(C)C)C(=O)N(C)[C@@H](CC(C)C)C(=O)N(C)[C@@H](C)C(=O)N[C@@H](C)CC(=O)N[C@H](C(C)C)C(=O)N1C [DP-760] (cyclo(A[NMeL]TF[NMeF][NMeL]S(tBu)[NMeL][NMeA][β3hA][dV][NMeI])) | – | –
9.2 | 118 | CC[C@H](C)[C@H]1C(=O)N(C)[C@@H](C)C(=O)N(C)[C@@H](CC(C)C)C(=O)N[C@@H](COC(C)(C)C)C(=O)N(C)[C@@H](CC(C)C)C(=O)N[C@@H](C)CC(=O)N(C)[C@@H](C)C(=O)N(C)[C@@H](Cc2ccccc2)C(=O)N[C@@H](CC(C)C)C(=O)N(C)[C@@H](CC(C)C)C(=O)N[C@@H]([C@@H](C)O)C(=O)N[C@@H](Cc2ccccc2)C(=O)N1C [DP-761] (cyclo(F[NMeI][NMeA][NMeL]S(tBu)[NMeL][β3hA][NMeA][NMeF]L[NMeL]T)) | – | –
13 | 81 | CC[C@H](C)[C@H]1C(=O)NCC(=O)N(C)[C@@H](Cc2cccc(Cl)c2)C(=O)N[C@@H]([C@@H](C)O)C(=O)N(C)[C@@H](CC(C)C)C(=O)N[C@@H](CC(C)C)C(=O)N[C@@H](C)CC(=O)N(C)[C@H](C)C(=O)N(C)[C@@H](CC(C)C)C(=O)N[C@@H](Cc2ccccc2)C(=O)N(C)[C@@H](CC(C)C)C(=O)N[C@@H](C(C)C)C(=O)N1C [DP-762] (cyclo(F[NMeL]V[NMeI]G[NMePhe(3-Cl)]T[NMeL]L[β3hA][dNMeA][NMeL])) | – | –
2.5 | 15 | CC(C)C[C@H]1C(=O)N(C)[C@@H](C)C(=O)N[C@@H](C)C(=O)N[C@@H](C)CC(=O)N(C)CCC(=O)N(C)[C@@H](Cc2ccccc2)C(=O)N(C)[C@@H](C)C(=O)N[C@@H]([C@@H](C)O)C(=O)N(C)[C@@H](C)C(=O)N[C@@H](Cc2ccccc2)C(=O)N(C)[C@@H](C(C)C)C(=O)N1C [DP-763] (cyclo(A[β3hA][NMeβAla][NMeF][NMeA]T[NMeA]F[NMeV][NMeL][NMeA])) | – | –
